One series addresses T1, Thromboxane-A synthase (Homo sapiens, UniProt P24557).
T1 sequence (P24557 whole entry): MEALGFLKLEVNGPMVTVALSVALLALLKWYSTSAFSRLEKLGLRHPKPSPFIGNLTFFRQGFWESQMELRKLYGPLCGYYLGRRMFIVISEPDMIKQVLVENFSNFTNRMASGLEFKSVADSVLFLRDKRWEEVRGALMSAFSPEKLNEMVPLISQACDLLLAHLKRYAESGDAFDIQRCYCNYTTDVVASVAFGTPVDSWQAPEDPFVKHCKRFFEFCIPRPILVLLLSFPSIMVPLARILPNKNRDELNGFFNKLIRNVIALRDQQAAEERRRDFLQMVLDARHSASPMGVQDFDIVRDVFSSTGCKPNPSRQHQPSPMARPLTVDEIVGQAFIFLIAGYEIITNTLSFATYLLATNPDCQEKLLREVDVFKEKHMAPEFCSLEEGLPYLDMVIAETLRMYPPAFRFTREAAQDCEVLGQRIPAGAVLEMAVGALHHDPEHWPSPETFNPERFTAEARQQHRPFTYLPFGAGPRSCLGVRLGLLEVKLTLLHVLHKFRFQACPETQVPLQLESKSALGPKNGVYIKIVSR
As to the kind of experiment: In vitro inhibition of thromboxane synthase from human platelets.

The target in series [1] is T2, Cytochrome P450 11B1, mitochondrial (Rattus norvegicus, UniProt P15393).
T2 sequence (P15393 whole entry): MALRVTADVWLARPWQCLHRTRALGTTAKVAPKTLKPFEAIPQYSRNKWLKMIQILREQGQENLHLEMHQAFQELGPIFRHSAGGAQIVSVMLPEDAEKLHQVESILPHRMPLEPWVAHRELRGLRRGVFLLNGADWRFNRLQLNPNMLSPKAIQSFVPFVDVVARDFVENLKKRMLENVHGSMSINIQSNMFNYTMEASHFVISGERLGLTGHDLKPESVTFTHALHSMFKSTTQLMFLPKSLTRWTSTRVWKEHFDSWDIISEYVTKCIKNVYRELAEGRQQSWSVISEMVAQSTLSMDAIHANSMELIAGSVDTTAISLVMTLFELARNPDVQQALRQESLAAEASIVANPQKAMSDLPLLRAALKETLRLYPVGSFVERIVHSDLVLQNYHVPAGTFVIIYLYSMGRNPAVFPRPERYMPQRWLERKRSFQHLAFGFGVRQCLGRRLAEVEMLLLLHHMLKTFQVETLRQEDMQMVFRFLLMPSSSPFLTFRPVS
As to the kind of experiment: Effect on adrenal 11-beta-hydroxylase activity at 10e-4 M; No significant effect.

In series [2] the test system is Prostacyclin synthase (Sus scrofa). Kind of series: Effect on porcine aorta prostacyclin (PGI-2) synthase activity at 10e-4 M; No significant effect.
Series [3] deals with Prostaglandin G/H synthase (cyclooxygenase) (Ovis aries) (UniProt P05979+P79208). As to the kind of experiment: Effect on ram seminal vesicle cyclooxygenase activity at 10e-4 M; no significant effect. It counts as tissue-based.
Sequence of Prostaglandin G/H synthase (cyclooxygenase) (Ovis aries) (P05979 whole entry, looked up): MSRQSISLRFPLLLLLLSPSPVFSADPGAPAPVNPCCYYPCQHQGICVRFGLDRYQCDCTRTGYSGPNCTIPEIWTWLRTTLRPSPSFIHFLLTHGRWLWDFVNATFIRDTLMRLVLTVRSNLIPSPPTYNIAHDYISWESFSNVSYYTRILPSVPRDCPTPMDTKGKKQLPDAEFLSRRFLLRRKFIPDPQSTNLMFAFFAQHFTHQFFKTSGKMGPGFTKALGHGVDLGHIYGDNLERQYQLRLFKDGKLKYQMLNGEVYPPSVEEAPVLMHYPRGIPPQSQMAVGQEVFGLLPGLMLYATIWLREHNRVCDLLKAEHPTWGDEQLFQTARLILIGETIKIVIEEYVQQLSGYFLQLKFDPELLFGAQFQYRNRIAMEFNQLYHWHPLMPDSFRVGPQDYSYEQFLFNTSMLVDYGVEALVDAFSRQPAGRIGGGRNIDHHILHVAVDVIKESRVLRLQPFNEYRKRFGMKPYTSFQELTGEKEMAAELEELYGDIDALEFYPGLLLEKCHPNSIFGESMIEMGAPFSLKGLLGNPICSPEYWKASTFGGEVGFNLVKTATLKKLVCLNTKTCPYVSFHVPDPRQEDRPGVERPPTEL
Sequence of Prostaglandin G/H synthase (cyclooxygenase) (Ovis aries) (P79208 whole entry, looked up): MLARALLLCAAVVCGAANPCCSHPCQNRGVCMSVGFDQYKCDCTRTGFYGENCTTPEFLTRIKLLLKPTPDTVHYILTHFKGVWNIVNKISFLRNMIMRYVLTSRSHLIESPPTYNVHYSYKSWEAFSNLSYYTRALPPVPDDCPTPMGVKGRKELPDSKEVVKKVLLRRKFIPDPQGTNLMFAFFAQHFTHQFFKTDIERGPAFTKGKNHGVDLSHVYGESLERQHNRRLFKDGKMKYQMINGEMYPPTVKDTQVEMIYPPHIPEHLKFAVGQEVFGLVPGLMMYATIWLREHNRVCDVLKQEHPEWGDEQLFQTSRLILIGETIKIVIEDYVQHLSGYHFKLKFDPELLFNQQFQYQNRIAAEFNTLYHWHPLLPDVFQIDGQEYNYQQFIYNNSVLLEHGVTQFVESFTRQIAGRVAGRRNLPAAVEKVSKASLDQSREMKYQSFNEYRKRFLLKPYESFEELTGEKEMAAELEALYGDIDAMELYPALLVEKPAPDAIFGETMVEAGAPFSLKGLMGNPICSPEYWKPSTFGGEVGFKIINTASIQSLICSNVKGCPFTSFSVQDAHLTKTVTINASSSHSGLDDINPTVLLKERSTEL

A word on the IC50: it is the concentration at which inhibition is half-maximal.

As to `COc1cc(Cn2ccnc2)cc2sc(C(=O)O)cc12`, the IC50 on Thromboxane-A synthase stood at 5 nM.

On Thromboxane-A synthase, `O=C(O)c1sc2cc(Cn3ccnc3)ccc2c1Cl` gave an IC50 of 7.4 nM.

With `O=C(O)c1cc2cc(Cn3ccnc3)ccc2s1`, at Thromboxane-A synthase, the IC50 was 21 nM.

`O=C(O)c1csc2c(Cn3ccnc3)cccc12` yielded an IC50 on Thromboxane-A synthase of 34 nM.

On Thromboxane-A synthase, `Cc1c(C(=O)O)sc2ccc(Cn3ccnc3)cc12` returned an IC50 of 29 nM.

As for `O=C(O)c1cc2ccc(Cn3ccnc3)cc2s1`, the IC50 against Thromboxane-A synthase is 18 nM.

The compound `O=C(O)c1csc2ccc(Cn3ccnc3)cc12` registered an IC50 on Thromboxane-A synthase of 1700 nM.

Regarding `O=C(O)c1csc2cc(Cn3ccnc3)ccc12`, it took 19 nM to reach half-maximal inhibition against Thromboxane-A synthase (IC50).

Regarding `O=C(O)c1cc2cc(Cn3ccnc3)ccc2[nH]1`, on Thromboxane-A synthase, half-maximal inhibition (IC50) required 5 nM.

As for `O=C(O)c1cc2cc(OCCn3ccnc3)ccc2s1`, 420 nM corresponded to half-maximal inhibition against Thromboxane-A synthase (IC50).

`Cc1c(C(=O)O)sc2cc(Cn3ccnc3)ccc12`: the Effect entry in series [1], in series [2] and in series [3] was “No effect” in each case. This compound also showed an IC50 against Thromboxane-A synthase of 5.2 nM.

On Thromboxane-A synthase, `Cc1c(C(=O)O)sc2cc(OCCn3ccnc3)ccc12` returned an IC50 of 140 nM.

As to `O=C(O)c1cc2ccc(Cn3ccnc3)cc2o1`, the midpoint of inhibition on Thromboxane-A synthase, the IC50, lay at 20 nM.

For `O=C(O)c1cc2cc(Cn3ccnc3)ccc2o1`, at Thromboxane-A synthase, the IC50 stood at 34 nM.

As for `O=C(O)c1cc2ccc(Cn3ccnc3)cc2[nH]1`, half-maximal inhibition against Thromboxane-A synthase (IC50) was put at 33 nM.

As for `O=C(O)c1cc2cccc(Cn3ccnc3)c2s1`, inhibition against Thromboxane-A synthase was half-maximal at 120 nM (IC50).

Take `O=C(O)c1cc2c(O)cc(Cn3ccnc3)cc2s1`: the IC50 on Thromboxane-A synthase was 52 nM.

Turning to `O=C(O)COc1ccc(Cn2ccnc2)cc1`, the IC50 against Thromboxane-A synthase was determined as 31 nM.
